Measurements as given in patent publication US10266526B2, “Substituted 1,2,3-triazoles as SMYD inhibitors for treating cancer” (EPIZYME, INC., priority 2014, dated 2019).

Columns and labels:
[1] = test system: esophageal, liver and breast cancer cell lines; conditions: several esophageal, dose-dependent; cited from earlier work
SMYD3 [2] = target: T1, SMYD3 (Homo sapiens (Human), UniProt Q9H7B4); experiment: SMYD3 biochemical assay (SMYD3 enzyme assay on MEKK2 protein substrate, 3H-SAM scintillation proximity assay); conditions: Table 3A; average of n = 1 to n = 50; read-out: SMYD3 Biochem IC50
T1 sequence (Q9H7B4 whole entry): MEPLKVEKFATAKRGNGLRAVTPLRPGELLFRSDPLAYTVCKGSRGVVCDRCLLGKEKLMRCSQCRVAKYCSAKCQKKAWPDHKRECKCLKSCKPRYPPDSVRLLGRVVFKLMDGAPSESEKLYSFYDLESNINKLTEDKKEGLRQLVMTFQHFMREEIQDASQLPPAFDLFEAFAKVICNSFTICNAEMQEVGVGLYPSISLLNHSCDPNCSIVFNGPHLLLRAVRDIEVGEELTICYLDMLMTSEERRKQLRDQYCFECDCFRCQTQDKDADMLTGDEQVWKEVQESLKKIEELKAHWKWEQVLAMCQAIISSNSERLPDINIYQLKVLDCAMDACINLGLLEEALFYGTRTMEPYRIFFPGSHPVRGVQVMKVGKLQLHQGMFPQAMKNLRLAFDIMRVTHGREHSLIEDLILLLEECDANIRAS
Outline: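 Native full-length human SMYD3, expressed in E. coli, was preincubated with compound for 30 min at room temperature in 25 mM Tris-Cl pH 8.0, 1 mM TCEP, 0.005% BSG and 0.005% Tween 20. ³H-SAM plus GST-MEKK2 then started the reaction. It was stopped with unlabeled SAM (100 uM final), and methylated MEKK2 was read by SPA.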

SMYD3 [3] = target: T1, SMYD3; experiment: SMYD3 cell assay (Trimethyl-MEKK2 In-Cell Western in 293T/17 cells transfected with MEKK2-flag and SMYD3); format: cell-based
Outline: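 Methanol-fixed cells stained in-cell Western for trimethyl-MEKK2 and anti-flag. Ratio-based % inhibition against DMSO and background controls; IC50 by non-linear regression, triplicate wells.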

[4] = Table 3A, average of n = 1 to n = 50, read-out: SMYD3 cell IC50

SMILES	proliferation of cancer cell lines [1]	IC50 (SMYD3 [2]) [µM]	IC50 (SMYD3 [3]; [4]) [µM]	IC50 (SMYD3 [3]) [µM]
Cc1cn(CCN2CCN(c3ccccc3-c3cc(C#N)cc(C(=O)NCCCN4CCCC4)c3)CC2)c2ccccc12 [LLY-507]	inhibited the proliferation	–	–	–
CC(=O)Nc1ccc(S(=O)(=O)N2CC[C@H](NC(=O)c3ccc4c(c3)CC(=O)N4)C[C@@H]2C)cc1 [compound 632, N-((2S,4S)-1-(4-acetamidophenylsulfonyl)-2-methylpiperidin-4-yl)-2-oxoindoline-5-carboxamide]	–	0.526	≥ 10	–
NC1CCN(S(=O)(=O)N2[C@@H]3CC[C@H]2C[C@@H](NC(=O)c2cc(C4CC4)[nH]n2)C3)CC1 [compound 633, N-((1R,3r,5S)-8-((4-aminopiperidin-1-yl)sulfonyl)-8-azabicyclo[3.2.1]octan-3-yl)-5-cyclopropyl-1H-pyrazole-3-carboxamide]	–	0.529	≥ 10	–
C[C@@H]1CN(S(=O)(=O)N2CCC(N)CC2)CC[C@@H]1NC(=O)c1cc2c(cc1Cl)NC(=O)C2 [compound 634, N-((3R,4S)-1-((4-aminopiperidin-1-yl)sulfonyl)-3-methylpiperidin-4-yl)-6-chloro-2-oxoindoline-5-carboxamide]	–	0.529	0.972	–
CCc1cccc(C(=O)N[C@H]2C[C@H]3CC[C@@H](C2)N3S(=O)(=O)CC2CCNCC2)c1 [compound 635, 3-ethyl-N-((1R,3r,5S)-8-((piperidin-4-ylmethyl)sulfonyl)-8-azabicyclo[3.2.1]octan-3-yl)benzamide]	–	0.62	≥ 10	–
NC1CCN(S(=O)(=O)N2[C@@H]3CC[C@H]2C[C@@H](NC(=O)c2ccc4c(c2)OCC(=O)N4)C3)CC1 [compound 636, N-((1R,3r,5S)-8-((4-aminopiperidin-1-yl)sulfonyl)-8-azabicyclo[3.2.1]octan-3-yl)-3-oxo-3,4-dihydro-2H-benzo[b][1,4]oxazine-7-carboxamide]	–	0.819	–	≥ 10
NC1CCN(S(=O)(=O)N2[C@@H]3CC[C@H]2C[C@@H](NC(=O)c2cnn(C4CC4)c2)C3)CC1 [compound 637, N-((1R,3r,5S)-8-((4-aminopiperidin-1-yl)sulfonyl)-8-azabicyclo[3.2.1]octan-3-yl)-1-cyclopropyl-1H-pyrazole-4-carboxamide]	–	0.839	≥ 10	–
N[C@H]1CC[C@H](C(=O)N2[C@@H]3CC[C@H]2C[C@@H](NC(=O)c2ccc4c(c2)CC(=O)N4)C3)CC1 [compound 638, N-((1R,3R,5S)-8-((1r,4R)-4-aminocyclohexane-1-carbonyl)-8-azabicyclo[3.2.1]octan-3-yl)-2-oxoindoline-5-carboxamide]	–	0.962	≥ 10	–
C[C@H]1C[C@@H](NC(=O)c2cnn(C3CC3)c2)CCN1S(=O)(=O)N1CCC(N)CC1 [compound 639, N-((2S,4S)-1-((4-aminopiperidin-1-yl)sulfonyl)-2-methylpiperidin-4-yl)-1-cyclopropyl-1H-pyrazole-4-carboxamide]	–	1	≥ 10	–
CC(=O)Nc1ccc(S(=O)(=O)N2CCC(NC(=O)c3cc4c(cc3Cl)NC(=O)C4)CC2)cc1 [compound 641, N-(1-((4-acetamidophenyl)sulfonyl)piperidin-4-yl)-6-chloro-2-oxoindoline-5-carboxamide]	–	5.93	≥ 10	–
CC(=O)Nc1ccc(S(=O)(=O)N2CCC(NC(=O)c3ccc4c(c3)CC(=O)N4)CC2)cc1 [compound 643, N-(1-((4-acetamidophenyl)sulfonyl)piperidin-4-yl)-2-oxoindoline-5-carboxamide]	–	16.9	≥ 10	–
NC1CCN(S(=O)(=O)N2[C@@H]3CC[C@H]2C[C@@H](NC(=O)c2cc(C4CC4)no2)C3)CC1 [compound 644, N-((1R,3r,5S)-8-((4-aminopiperidin-1-yl)sulfonyl)-8-azabicyclo[3.2.1]octan-3-yl)-3-cyclopropylisoxazole-5-carboxamide]	–	0.0185	0.257	–
